# Assay results from paper PMC11461180, “Interaction with IP6K1 supports pyrophosphorylation of substrate proteins by the inositol pyrophosphate 5-InsP7” (Bioscience Reports, 2024).
# How the values were obtained:
# [1] = molecular target: T1, Casein Kinase II (CK2 holoenzyme) (Homo sapiens, UniProt P68400); assay: [γ-32P]ATP phosphorylation of immunoprecipitated myc-AP3B1, autoradiography; type: biochemical; details: 15 µM TBCA preincubated 30 min on ice; 500 µM Mg-ATP; enzyme form (holoenzyme or GST-CK2α) not told for the TBCA lanes
# T1 construct: gene CSNK2A1; commercial recombinant holoenzyme, heterotetramer; with Casein kinase II subunit beta
# [2] = molecular target: T2, AP3B1 (myc-tagged) (Homo sapiens, UniProt O00203); assay: pyrophosphorylation of immunoprecipitated protein, phosphorimager; type: biochemical; details: labelled compound; β-phosphate donor, covalent transfer to pSer of the protein, enzyme-independent; 6 mM MgCl2, pH 7.4, 37 °C, 15 min
# T2 construct: full-length, N-terminal myc tag, expressed in HEK293T cells, immunoprecipitated on protein G-sepharose beads
# T2 sequence (O00203 1-1094): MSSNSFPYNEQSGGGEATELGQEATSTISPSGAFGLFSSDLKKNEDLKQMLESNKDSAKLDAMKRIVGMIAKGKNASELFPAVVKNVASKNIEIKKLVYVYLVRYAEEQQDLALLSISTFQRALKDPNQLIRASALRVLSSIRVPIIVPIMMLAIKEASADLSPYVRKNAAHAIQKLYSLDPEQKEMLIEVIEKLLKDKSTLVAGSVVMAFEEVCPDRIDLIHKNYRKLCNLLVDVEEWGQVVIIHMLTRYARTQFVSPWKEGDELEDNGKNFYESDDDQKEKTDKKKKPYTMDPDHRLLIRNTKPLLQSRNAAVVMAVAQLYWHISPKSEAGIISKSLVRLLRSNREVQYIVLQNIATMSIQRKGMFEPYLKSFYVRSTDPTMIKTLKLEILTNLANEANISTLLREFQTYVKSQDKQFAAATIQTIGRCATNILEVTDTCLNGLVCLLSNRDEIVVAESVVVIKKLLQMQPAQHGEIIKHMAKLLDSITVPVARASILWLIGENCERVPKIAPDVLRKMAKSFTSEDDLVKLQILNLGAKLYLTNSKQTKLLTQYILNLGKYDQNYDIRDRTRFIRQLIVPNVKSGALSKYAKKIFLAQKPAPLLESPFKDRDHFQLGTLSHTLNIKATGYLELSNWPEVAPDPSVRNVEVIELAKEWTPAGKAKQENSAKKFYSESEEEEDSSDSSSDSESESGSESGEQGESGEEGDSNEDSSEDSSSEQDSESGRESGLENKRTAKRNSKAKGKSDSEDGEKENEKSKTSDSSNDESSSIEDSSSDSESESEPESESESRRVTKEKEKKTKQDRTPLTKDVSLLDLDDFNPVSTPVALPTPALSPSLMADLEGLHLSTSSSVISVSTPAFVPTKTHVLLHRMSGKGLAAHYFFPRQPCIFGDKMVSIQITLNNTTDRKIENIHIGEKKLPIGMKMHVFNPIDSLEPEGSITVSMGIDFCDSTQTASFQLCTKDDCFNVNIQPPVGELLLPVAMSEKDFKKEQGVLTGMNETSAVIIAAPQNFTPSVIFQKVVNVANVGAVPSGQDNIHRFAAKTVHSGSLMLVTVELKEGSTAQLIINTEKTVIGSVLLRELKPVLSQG
# T1 sequence (P68400 whole entry): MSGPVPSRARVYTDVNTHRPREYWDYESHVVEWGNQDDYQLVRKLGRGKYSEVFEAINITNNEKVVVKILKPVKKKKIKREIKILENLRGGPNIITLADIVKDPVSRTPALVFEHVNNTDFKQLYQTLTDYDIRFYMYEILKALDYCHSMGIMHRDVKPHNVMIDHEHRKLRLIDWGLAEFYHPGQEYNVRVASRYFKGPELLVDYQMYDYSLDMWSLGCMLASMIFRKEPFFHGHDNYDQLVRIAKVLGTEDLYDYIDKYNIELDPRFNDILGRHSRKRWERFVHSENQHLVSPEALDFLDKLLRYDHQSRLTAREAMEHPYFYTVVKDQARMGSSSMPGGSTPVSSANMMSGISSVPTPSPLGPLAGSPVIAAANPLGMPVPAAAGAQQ
# T1 sequence (P67870 2-215 partner): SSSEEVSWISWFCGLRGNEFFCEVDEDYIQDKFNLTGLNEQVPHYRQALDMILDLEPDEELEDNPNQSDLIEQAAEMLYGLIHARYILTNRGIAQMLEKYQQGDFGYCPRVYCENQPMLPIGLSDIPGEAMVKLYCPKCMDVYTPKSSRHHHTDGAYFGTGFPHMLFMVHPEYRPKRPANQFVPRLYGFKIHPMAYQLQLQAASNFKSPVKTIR
SMILES,phosphorylation lowered at 15 μM [1],"pyrophosphorylation of immunoprecipitated protein, phosphorimager [2]"
O=C(O)/C=C/c1cc(Br)c(Br)c(Br)c1Br [TBCA],which was lowered when the CK2 inhibitor TBCA was added to the reaction,
O=P(O)(O)O[C@H]1[C@@H](OP(=O)(O)O)[C@H](OP(=O)(O)O)[C@@H](OP(=O)(O)OP(=O)(O)O)[C@H](OP(=O)(O)O)[C@H]1OP(=O)(O)O [5-InsP7],,AP3B1 over-expressed under these two conditions was immunoprecipitated and incubated with radiolabeled 5-InsP7
